In patent publication US10363251B2, “(+)-morphinans as antagonists of toll-like receptor 9 and therapeutic uses thereof” (Mallinckrodt LLC, priority 2009, dated 2019):

Assays:
Type in all cases: cell-based
[1] = biological target: T1, TLR5 (Homo sapiens, UniProt O60602); assay: TLR5 antagonist screening, NF-κB-inducible SEAP reporter in HEK293 cells; conditions: for Average % Inhibition at TLR5: 10 μM, stimulated with Flagellin at 100 ng/ml
T1 construct: expressed in transfected cells; host or cells: HEK293
Method: (§1) Stimulation of TLRs 2, 3, 4, 5, 7, 8, and 9 was determined by assessing activation of the transcription factor NF-κB in HEK293 cells that were engineered to express the corresponding receptors. Assessment of TLR stimulation was based on the use of an NF-κB-inducible secreted alkaline phosphatase (SEAP) reporter system in which the SEAP reporter was under the control of a promoter inducible by NF-κB. Thus, the degree of activation of TLRs can be indirectly quantified spectrophotometrically by measuring the amount of the SEAP reporter that is produced.
(§2) The appropriate TLR-expressing cells were plated in Growth Medium in a 96-well plate (25,000-50,000 cells/well). The cells were stimulated with the appropriate positive control ligand or no ligand was added (negative control). The positive control ligands were: HKLM was used to stimulate TLR2; poly(I:C) was used to stimulate TLR3; LPS was used to stimulate TLR4; Flagellin was used to stimulate TLR5; CL097 was used to stimulate TLR7; CL075 was used to stimulate TLR8; CpG oligodeoxynucleotide (ODN) 2006 was used to stimulate TLR9. To test whether (+)-morphinans could block that activation of the TLR, the cells were pretreated with an antagonist for 30 minutes prior to addition of the positive control ligand. For this, 20 μL of the stock test compound solution (100 μM in H2O) was added to give a total volume of 200 μL. […] After a 16-20 hr incubation period at 37° C. in a CO2 incubator, 20 μL of the cell culture supernatant was added to 180 μL of QUANTI-Blue™ Media (InvivoGen, San Diego, Calif.), and the resulting solutions were incubated at 37° C. for an additional 1-3 hours according to the manufacturer's instructions. The OD's of the samples were then read at 650 nm on a Beckman Coulter AD 340C Absorbance Detector.

[2] = biological target: T2, TLR3 (Homo sapiens, UniProt O15455); assay: TLR3 antagonist screening, NF-κB-inducible SEAP reporter in HEK293 cells; conditions: for Average % Inhibition at TLR3: 10 μM, stimulated with poly(I:C) at 1 μg/ml
T2 construct: expressed in transfected cells; host or cells: HEK293
Method: as §1, §2

[3] = biological target: T3, TLR9 (Homo sapiens, UniProt Q9NR96); assay: TLR9 antagonist screening, NF-κB-inducible SEAP reporter in HEK293 cells; conditions: for Average % Inhibition at TLR9: 10 μM, stimulated with CpG ODN 2006 at 100 ng/ml
T3 construct: expressed in transfected cells; host or cells: HEK293
T3 sequence (Q9NR96 26-1032): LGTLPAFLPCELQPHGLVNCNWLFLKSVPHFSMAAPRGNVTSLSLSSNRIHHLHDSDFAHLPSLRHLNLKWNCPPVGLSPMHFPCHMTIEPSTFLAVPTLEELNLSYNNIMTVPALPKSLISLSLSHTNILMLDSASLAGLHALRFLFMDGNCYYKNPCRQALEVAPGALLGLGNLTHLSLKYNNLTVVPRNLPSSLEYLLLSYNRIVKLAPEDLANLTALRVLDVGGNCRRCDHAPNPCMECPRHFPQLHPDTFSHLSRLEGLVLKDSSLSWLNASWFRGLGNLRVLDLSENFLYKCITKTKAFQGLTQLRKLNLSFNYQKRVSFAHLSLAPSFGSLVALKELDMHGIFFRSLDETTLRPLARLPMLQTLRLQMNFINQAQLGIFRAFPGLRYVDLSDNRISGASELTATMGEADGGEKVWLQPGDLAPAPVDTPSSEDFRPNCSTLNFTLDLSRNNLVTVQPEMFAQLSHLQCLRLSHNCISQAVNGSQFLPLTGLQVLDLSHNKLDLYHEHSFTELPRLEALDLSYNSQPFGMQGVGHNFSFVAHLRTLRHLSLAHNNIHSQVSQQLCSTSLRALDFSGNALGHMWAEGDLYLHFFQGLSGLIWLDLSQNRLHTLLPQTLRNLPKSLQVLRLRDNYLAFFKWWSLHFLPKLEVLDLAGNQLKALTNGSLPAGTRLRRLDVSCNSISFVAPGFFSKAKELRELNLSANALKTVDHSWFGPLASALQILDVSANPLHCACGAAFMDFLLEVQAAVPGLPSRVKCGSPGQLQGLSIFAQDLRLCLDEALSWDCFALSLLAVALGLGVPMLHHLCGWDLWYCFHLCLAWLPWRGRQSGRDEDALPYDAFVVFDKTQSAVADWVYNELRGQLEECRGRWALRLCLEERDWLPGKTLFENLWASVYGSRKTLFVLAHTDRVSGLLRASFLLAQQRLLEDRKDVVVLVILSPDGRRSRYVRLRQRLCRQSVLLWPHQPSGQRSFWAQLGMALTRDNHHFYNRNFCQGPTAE
Method: as §1, §2

[4] = biological target: T4, TLR4 (Homo sapiens, UniProt O00206); assay: TLR4 antagonist screening, NF-κB-inducible SEAP reporter in HEK293 cells; conditions: for Average % Inhibition at TLR4: 10 μM, stimulated with LPS at 100 ng/ml
T4 construct: expressed in transfected cells; host or cells: HEK293
Method: as §1, §2

T1 sequence (O60602 21-858, species assumed): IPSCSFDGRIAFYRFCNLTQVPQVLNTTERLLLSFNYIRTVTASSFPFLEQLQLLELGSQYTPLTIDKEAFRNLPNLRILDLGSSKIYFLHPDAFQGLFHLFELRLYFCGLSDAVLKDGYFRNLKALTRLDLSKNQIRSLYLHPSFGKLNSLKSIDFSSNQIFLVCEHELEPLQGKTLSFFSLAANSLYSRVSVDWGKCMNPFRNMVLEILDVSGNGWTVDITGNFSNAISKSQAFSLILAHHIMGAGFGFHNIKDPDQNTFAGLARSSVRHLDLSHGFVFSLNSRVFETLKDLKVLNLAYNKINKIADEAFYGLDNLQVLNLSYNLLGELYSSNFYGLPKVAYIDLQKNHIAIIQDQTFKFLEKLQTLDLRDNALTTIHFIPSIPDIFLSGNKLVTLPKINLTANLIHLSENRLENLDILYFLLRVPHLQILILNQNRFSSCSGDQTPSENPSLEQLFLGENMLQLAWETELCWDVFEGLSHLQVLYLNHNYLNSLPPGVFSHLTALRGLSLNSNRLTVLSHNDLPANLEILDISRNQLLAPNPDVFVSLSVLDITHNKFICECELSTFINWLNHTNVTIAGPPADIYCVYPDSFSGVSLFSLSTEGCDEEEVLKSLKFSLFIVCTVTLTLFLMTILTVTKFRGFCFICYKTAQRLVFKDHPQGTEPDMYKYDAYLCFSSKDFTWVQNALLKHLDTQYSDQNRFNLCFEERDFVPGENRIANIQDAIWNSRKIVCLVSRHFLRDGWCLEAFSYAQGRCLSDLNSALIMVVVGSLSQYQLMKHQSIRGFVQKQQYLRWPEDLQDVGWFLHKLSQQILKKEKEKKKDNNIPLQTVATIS
T2 sequence (O15455 24-904, species assumed): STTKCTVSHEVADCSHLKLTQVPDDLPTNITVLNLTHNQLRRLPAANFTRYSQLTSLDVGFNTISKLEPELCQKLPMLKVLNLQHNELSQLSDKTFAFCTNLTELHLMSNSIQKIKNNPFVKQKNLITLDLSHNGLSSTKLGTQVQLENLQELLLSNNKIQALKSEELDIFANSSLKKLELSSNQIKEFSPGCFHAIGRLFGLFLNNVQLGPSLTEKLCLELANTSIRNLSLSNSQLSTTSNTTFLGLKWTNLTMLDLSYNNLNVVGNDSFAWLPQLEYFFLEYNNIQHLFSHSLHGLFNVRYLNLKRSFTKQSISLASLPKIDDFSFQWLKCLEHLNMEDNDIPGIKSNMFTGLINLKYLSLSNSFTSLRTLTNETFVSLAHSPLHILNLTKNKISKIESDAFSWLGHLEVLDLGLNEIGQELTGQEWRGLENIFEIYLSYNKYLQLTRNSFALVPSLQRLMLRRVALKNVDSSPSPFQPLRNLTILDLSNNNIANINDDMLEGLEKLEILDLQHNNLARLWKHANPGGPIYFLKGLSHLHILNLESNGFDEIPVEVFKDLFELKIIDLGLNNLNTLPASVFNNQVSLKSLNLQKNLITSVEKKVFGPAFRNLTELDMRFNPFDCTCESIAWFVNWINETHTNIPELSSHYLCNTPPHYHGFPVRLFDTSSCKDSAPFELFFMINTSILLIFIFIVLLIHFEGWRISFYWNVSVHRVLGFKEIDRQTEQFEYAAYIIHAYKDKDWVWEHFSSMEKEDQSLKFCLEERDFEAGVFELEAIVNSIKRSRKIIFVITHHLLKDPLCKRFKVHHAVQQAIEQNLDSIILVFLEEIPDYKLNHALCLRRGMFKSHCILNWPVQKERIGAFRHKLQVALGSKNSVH
T4 sequence (O00206 24-839, species assumed): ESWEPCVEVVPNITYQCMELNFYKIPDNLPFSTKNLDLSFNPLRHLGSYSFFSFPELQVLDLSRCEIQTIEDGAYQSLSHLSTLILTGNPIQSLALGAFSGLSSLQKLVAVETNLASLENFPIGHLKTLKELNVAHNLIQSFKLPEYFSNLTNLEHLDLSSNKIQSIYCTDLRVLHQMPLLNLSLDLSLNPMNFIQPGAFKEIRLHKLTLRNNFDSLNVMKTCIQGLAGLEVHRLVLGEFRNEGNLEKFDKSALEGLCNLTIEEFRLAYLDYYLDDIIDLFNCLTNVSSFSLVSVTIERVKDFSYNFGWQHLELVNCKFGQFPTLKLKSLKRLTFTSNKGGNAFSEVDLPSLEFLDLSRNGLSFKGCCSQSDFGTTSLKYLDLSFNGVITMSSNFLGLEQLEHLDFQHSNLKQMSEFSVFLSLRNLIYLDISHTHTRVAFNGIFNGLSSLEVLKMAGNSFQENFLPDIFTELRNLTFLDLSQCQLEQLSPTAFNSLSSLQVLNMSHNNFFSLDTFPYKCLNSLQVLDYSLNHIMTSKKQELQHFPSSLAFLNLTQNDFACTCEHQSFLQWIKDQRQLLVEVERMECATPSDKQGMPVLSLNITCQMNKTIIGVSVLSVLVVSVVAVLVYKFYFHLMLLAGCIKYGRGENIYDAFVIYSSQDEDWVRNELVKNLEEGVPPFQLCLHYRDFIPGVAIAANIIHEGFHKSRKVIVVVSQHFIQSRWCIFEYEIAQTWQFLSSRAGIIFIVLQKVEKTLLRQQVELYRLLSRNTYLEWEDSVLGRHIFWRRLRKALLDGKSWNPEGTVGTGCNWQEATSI
T4 sequence (Q9Y6Y9 17-160 partner limits assumed, species assumed): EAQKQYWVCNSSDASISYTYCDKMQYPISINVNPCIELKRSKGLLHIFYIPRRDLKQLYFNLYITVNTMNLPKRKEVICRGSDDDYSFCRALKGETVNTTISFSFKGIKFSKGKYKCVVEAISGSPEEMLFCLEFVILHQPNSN

Structure (SMILES)	Average % Inhibition at TLR5 [1] [%]	Average % Inhibition at TLR3 [2] [%]	Average % Inhibition at TLR9 [3] [%]	Average % Inhibition at TLR4 [4] [%]	inhibition at 10 µM ([1]; HEK293, stimulated with Flagellin at 100 ng/ml) [%]	inhibition at 10 µM ([2]; HEK293, stimulated with poly(I:C) at 1 μg/ml) [%]	inhibition at 10 µM ([3]; HEK293, stimulated with CpG ODN 2006 at 100 ng/ml) [%]	inhibition at 10 µM ([4]; HEK293, stimulated with LPS at 100 ng/ml) [%]
C=CCN1CC[C@]23c4c5ccc(O)c4O[C@H]2C(=O)CC[C@]3(O)[C@H]1C5 [(+)-Naloxone, (+)-naloxone]	17	27	45	25	–	–	–	–
COc1ccc2c(c1O)[C@@]13CCN(C)[C@@H](C2)[C@H]1CC(OC)C(=O)C3 (stereo partly drawn) [Dihydrosinomenine, dihydrosinomenine]	16	40	42	23	–	–	–	–
COC1=C[C@@H]2[C@@H]3Cc4ccc(OC)c(O)c4[C@]2(CCN3C)CC1=O [Sinomenine, sinomenine]	–	–	–	–	19	28	55	24
